Measured values reported in patent US20250026778A1 (TIUMBIO CO., LTD., priority 2021, published 2025).

biological target: T1, his-galectin-3 (Homo sapiens, UniProt P17931); assay: TR-FRET assay (in vitro galectin-3 binding inhibitory activity test); details: Table 1; compound at 20 μM; 60 nM his-galectin-3, 15 nM biotin-ASF
T1 construct: purchased Abcam
Protocol: TR-FRET Assay (In Vitro Galectin-3 Binding Inhibitory Activity Test)
TR-FRET assay was performed in ½ Area Plate-96 (PerkinElmer). Final concentrations of components in the assay were 60 nM his-galectin-3 (Abcam), 15 nM biotin-ASF (Axxora), 2 nM Mab anti-6×His Tb (Cisbio) and 20 nM SA-d2 (Cisbio). The reaction was performed in a buffer containing 25 mM HEPES, 100 mM NaCl, 0.005% Tween 20 and 0.05% BSA. 20 μL his-galectin-3 and 1 μL compound were mixed first, and then 20 μL biotin-ASF, 5 μL anti-His Tb and 5 μL SA-d2 were added in order. After incubation for at least 3.5 hours at RT, TR-FRET signals were measured at 615/665 nm […] wavelengths using a VICTOR Nivo (PerkinElmer). The positive control used DMSO instead of the compound, and the negative control excluded ASF-biotin. N-acetyl-D-lactosamine (LacNAc), an endogenous ligand unit of galectin-3, was evaluated together as a control substance to compare galectin-3 binding inhibitory activity.

T1 sequence (P17931 whole entry): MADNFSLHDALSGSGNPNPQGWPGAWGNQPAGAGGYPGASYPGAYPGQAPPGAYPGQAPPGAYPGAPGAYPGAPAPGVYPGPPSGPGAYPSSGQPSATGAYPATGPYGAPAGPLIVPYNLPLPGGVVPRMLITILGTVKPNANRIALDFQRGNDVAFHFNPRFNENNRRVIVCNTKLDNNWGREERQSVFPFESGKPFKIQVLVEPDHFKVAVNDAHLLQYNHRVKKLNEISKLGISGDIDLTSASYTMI

Row | SMILES | % Inhibitory activity (at 20 μM)
1 | COc1ccc2c(c1)CCC1(O2)O[C@H](CO)[C@H](O)[C@H](n2cc(-c3cc(F)c(F)c(F)c3)nn2)[C@H]1O (single isomer, unassigned) [Compound A10, (3′R,4'S,5′R,6′R)-6′-(hydroxymethyl)-6-methoxy-4′-(4-(3,4,5-trifluorophenyl)-1H-1,2,3-triazol-1-yl)-3′,4′,5′,6′-tetrahydrospiro[chromane-2,2′-pyran]-3′,5′-diol] | D (inhibition rate was less than 25%)

same assay, conditions: Table 1; compound at 20 μM; 60 nM his-galectin-3, 15 nM biotin-ASF; read-out: % Inhibitory activity (at 20 μM)

Row | SMILES | inhibition at 20 µM [%]
2 | COc1ccc2c(c1)CCC1(O2)O[C@H](CO)[C@H](O)[C@H](n2cc(-c3cc(F)c(F)c(F)c3)nn2)[C@H]1O (single isomer, unassigned) [Compound A11, (3′R,4'S,5′R,6′R)-6′-(hydroxymethyl)-6-methoxy-4′-(4-(3,4,5-trifluorophenyl)-1H-1,2,3-triazol-1-yl)-3′,4′,5′,6′-tetrahydrospiro[chromane-2,2′-pyran]-3′,5′-diol] | 25 to 50
3 | O=C1CCCC2(N1)O[C@H](CO)[C@H](O)[C@H](n1cc(-c3cc(F)c(F)c(F)c3)nn1)[C@H]2O (single isomer, unassigned) [Compound A89] | < 25
4 | COc1ccc2c(c1)CC[C@]1(O2)O[C@H](CO)[C@H](O)[C@H](OCc2cc3c(F)c(F)ccc3oc2=O)[C@H]1O [Compound A08, 3-((((2R,3′R,4'S,5'S,6′R)-3′,5′-dihydroxy-6′-(hydroxymethyl)-6-methoxy-3′,4′,5′,6′-tetrahydrospiro[chromane-2,2′-pyran]-4′-yl)oxy)methyl)-5,6-difluoro-2H-chromen-2-one] | < 25
5 | O=c1oc2ccc(F)c(F)c2cc1CO[C@H]1[C@@H](O)[C@@H](CO)O[C@@]2(CCCO2)[C@@H]1O [Compound A09, 3-((((5S,7R,8S,9S,10R)-8,10-dihydroxy-7-(hydroxymethyl)-1,6-dioxaspiro[4.5]decan-9-yl)oxy)methyl)-5,6-difluoro-2H-chromen-2-one] | < 25
6 | OC[C@H]1O[C@@]2(CCCO2)[C@H](O)[C@@H](n2cc(-c3cc(F)c(F)c(F)c3)nn2)[C@H]1O [Compound A12, (5S,7R,8R,9S,10R)-7-(hydroxymethyl)-9-(4-(3,4,5-trifluorophenyl)-1H-1,2,3-triazol-1-yl)-1,6-dioxaspiro[4.5]decane-8,10-diol] | 25 to 50
7 | OC[C@H]1O[C@@]2(CCCO2)[C@H](OCc2ccccc2)[C@@H](n2cc(-c3cc(F)c(F)c(F)c3)nn2)[C@H]1O [Compound A13, (5S,7R,8R,9S,10R)-10-(benzyloxy)-7-(hydroxymethyl)-9-(4-(3,4,5-trifluorophenyl)-1H-1,2,3-triazol-1-yl)-1,6-dioxaspiro[4.5]decan-8-ol] | 25 to 50
8 | OC[C@H]1O[C@@]2(CCCO2)[C@H](OCc2cccnc2)[C@@H](n2cc(-c3cc(F)c(F)c(F)c3)nn2)[C@H]1O [Compound A16, (5S,7R,8R,9S,10R)-7-(hydroxymethyl)-10-(pyridin-3-ylmethoxy)-9-(4-(3,4,5-trifluorophenyl)-1H-1,2,3-triazol-1-yl)-1,6-dioxaspiro[4.5]decan-8-ol acetate] | 25 to 50
9 | OC[C@H]1O[C@@]2(CCCO2)[C@H](OCc2ccccn2)[C@@H](n2cc(-c3cc(F)c(F)c(F)c3)nn2)[C@H]1O [Compound A17, (5S,7R,8R,9S,10R)-7-(hydroxymethyl)-10-(pyridin-2-ylmethoxy)-9-(4-(3,4,5-trifluorophenyl)-1H-1,2,3-triazol-1-yl)-1,6-dioxaspiro[4.5]decan-8-ol] | 25 to 50
10 | OC[C@H]1O[C@@]2(CCCO2)[C@H](OCc2ccncc2)[C@@H](n2cc(-c3cc(F)c(F)c(F)c3)nn2)[C@H]1O [Compound A18, (5S,7R,8R,9S,10R)-7-(hydroxymethyl)-10-(pyridin-4-ylmethoxy)-9-(4-(3,4,5-trifluorophenyl)-1H-1,2,3-triazol-1-yl)-1,6-dioxaspiro[4.5]decan-8-ol acetate] | 25 to 50
11 | OC[C@H]1O[C@@]2(CCCO2)[C@H](OCc2ccc(C(F)(F)F)o2)[C@@H](n2cc(-c3cc(F)c(F)c(F)c3)nn2)[C@H]1O [Compound A19, (5S,7R,8R,9S,10R)-7-(hydroxymethyl)-10-((5-(trifluoromethyl)furan-2-yl)methoxy)-9-(4-(3,4,5-trifluorophenyl)-1H-1,2,3-triazol-1-yl)-1,6-dioxaspiro[4.5]decan-8-ol] | 25 to 50
12 | O=C(CO[C@@H]1[C@@H](n2cc(-c3cc(F)c(F)c(F)c3)nn2)[C@@H](O)[C@@H](CO)O[C@@]12CCCO2)c1ccccc1 [Compound A20, 2-(((5S,7R,8R,9S,10R)-8-hydroxy-7-(hydroxymethyl)-9-(4-(3,4,5-trifluorophenyl)-1H-1,2,3-triazol-1-yl)-1,6-dioxaspiro[4.5]decan-10-yl)oxy)-1-phenylethanone] | 25 to 50
13 | O=C(O)CO[C@@H]1[C@@H](n2cc(-c3cc(F)c(F)c(F)c3)nn2)[C@@H](O)[C@@H](CO)O[C@@]12CCCO2 [Compound A21, 2-(((5S,7R,8R,9S,10R)-8-hydroxy-7-(hydroxymethyl)-9-(4-(3,4,5-trifluorophenyl)-1H-1,2,3-triazol-1-yl)-1,6-dioxaspiro[4.5]decan-10-yl)oxy)acetic acid] | 50 to 75
14 | O=C(CO[C@@H]1[C@@H](n2cc(-c3cc(F)c(F)c(F)c3)nn2)[C@@H](O)[C@@H](CO)O[C@@]12CCCO2)N1CCC(O)CC1 [Compound A22, 2-(((5S,7R,8R,9S,10R)-8-hydroxy-7-(hydroxymethyl)-9-(4-(3,4,5-trifluorophenyl)-1H-1,2,3-triazol-1-yl)-1,6-dioxaspiro[4.5]decan-10-yl)oxy)-1-(4-hydroxypiperidin1-yl)ethanone] | 25 to 50
15 | O=C(CO[C@@H]1[C@@H](n2cc(-c3cc(F)c(F)c(F)c3)nn2)[C@@H](O)[C@@H](CO)O[C@@]12CCCO2)Nc1ccccc1 [Compound A23, 2-(((5S,7R,8R,9S,10R)-8-hydroxy-7-(hydroxymethyl)-9-(4-(3,4,5-trifluorophenyl)-1H-1,2,3-triazol-1-yl)-1,6-dioxaspiro[4.5]decan-10-yl)oxy)-N-phenylacetamide] | 25 to 50
16 | OC[C@H]1O[C@@]2(CCCCO2)[C@H](O)[C@@H](n2cc(-c3cc(F)c(F)c(F)c3)nn2)[C@H]1O [Compound A24, (2R,3R,4S,5R,6S)-2-(hydroxymethyl)-4-(4-(3,4,5-trifluorophenyl)-1H-1,2,3-triazol-1-yl)-1,7-dioxaspiro[5.5]undecane-3,5-diol] | 25 to 50
17 | OC[C@H]1O[C@@]2(CCCCO2)[C@H](OCc2ccccc2)[C@@H](n2cc(-c3cc(F)c(F)c(F)c3)nn2)[C@H]1O [Compound A25, (2R,3R,4S,5R,6S)-5-(benzyloxy)-2-(hydroxymethyl)-4-(4-(3,4,5-trifluorophenyl)-1H-1,2,3-triazol-1-yl)-1,7-dioxaspiro[5.5]undecan-3-ol] | 25 to 50

same assay, conditions: Table 2; compound at 20 μM; 60 nM his-galectin-3, 15 nM biotin-ASF

Row | SMILES | % Inhibitory activity (at 20 μM)
18 | CC(C(=O)N[C@@H]1CCO[C@]12O[C@H](CO)[C@H](O)[C@H](n1cc(-c3cc(F)c(F)c(F)c3)nn1)[C@H]2O)c1cccc(Cl)c1 (single isomer, unassigned) [Compound A167] | C (inhibition rate was 25%˜ to 50%˜ (exclusive of 50%))
19 | CC(C(=O)N[C@@H]1CCO[C@]12O[C@H](CO)[C@H](O)[C@H](n1cc(-c3cc(F)c(F)c(F)c3)nn1)[C@H]2O)c1cccc(Cl)c1 (single isomer, unassigned) [Compound A168] | B (inhibition rate was 50%0 to 7500 (exclusive of 75%))

same assay, conditions: Table 2; compound at 20 μM; 60 nM his-galectin-3, 15 nM biotin-ASF; read-out: % Inhibitory activity (at 20 μM)

Row | SMILES | inhibition at 20 µM [%]
20 | CC1CO[C@@]2(C1)O[C@H](CO)[C@H](O)[C@H](n1cc(-c3cc(F)c(F)c(F)c3)nn1)[C@H]2OC(=O)c1ccccn1 (single isomer, unassigned) [Compound A235] | 50 to 75
21 | CC1CO[C@@]2(C1)O[C@H](CO)[C@H](O)[C@H](n1cc(-c3cc(F)c(F)c(F)c3)nn1)[C@H]2OCC(=O)O (single isomer, unassigned) [Compound A236] | 50 to 75

same assay, conditions: Table 3, found values; compound at 20 μM; 60 nM his-galectin-3, 15 nM biotin-ASF; read-out: % Inhibitory activity (at 20 μM)

Row | SMILES | inhibition at 20 µM [%]
22 | COc1ccc2c(c1)CC[C@]1(O2)O[C@H](CO)[C@H](O)[C@H](OCc2cc3c(F)c(F)ccc3oc2=O)[C@H]1O [Compound A08, 3-((((2R,3′R,4'S,5'S,6′R)-3′,5′-dihydroxy-6′-(hydroxymethyl)-6-methoxy-3′,4′,5′,6′-tetrahydrospiro[chromane-2,2′-pyran]-4′-yl)oxy)methyl)-5,6-difluoro-2H-chromen-2-one] | 21.8
23 | O=C(CO[C@@H]1[C@@H](n2cc(-c3cc(F)c(F)c(F)c3)nn2)[C@@H](O)[C@@H](CO)O[C@@]12CCCO2)N1CCC(O)CC1 [Compound A22, 2-(((5S,7R,8R,9S,10R)-8-hydroxy-7-(hydroxymethyl)-9-(4-(3,4,5-trifluorophenyl)-1H-1,2,3-triazol-1-yl)-1,6-dioxaspiro[4.5]decan-10-yl)oxy)-1-(4-hydroxypiperidin1-yl)ethanone] | 28.1

same assay, conditions: read-out: % Inhibitory activity (at 20 μM), Table 1; compound at 20 μM; 60 nM his-galectin-3, 15 nM biotin-ASF

Row | SMILES | inhibition at 20 µM [%]
24 | OC[C@H]1O[C@@]2(CCCO2)C(O)[C@@H](n2cc(-c3cc(F)c(F)c(F)c3)nn2)[C@H]1O (stereo in doubt) [Compound A41, (5S,7R,8R,9S,10R)-7-(hydroxymethyl)-9-(4-(3,4,5-trifluorophenyl)-1H-1,2,3-triazol-1-yl)-1,6-dioxaspiro[4.5]decane-8,10-diol] | < 25
25 | O=C(OC1[C@@H](n2cc(-c3cc(F)c(F)c(F)c3)nn2)[C@@H](O)[C@@H](CO)O[C@@]12CCCO2)c1cccnc1 (stereo in doubt) [Compound A75, (5S,7R,8R,9S,10S)-8-hydroxy-7-(hydroxymethyl)-9-(4-(3,4,5-trifluorophenyl)-1H-1,2,3-triazol-1-yl)-1,6-dioxaspiro[4.5]decan-10-yl nicotinate] | 25 to 50

same assay, conditions: read-out: % Inhibitory activity (at 20 μM), Table 3, found values; compound at 20 μM; 60 nM his-galectin-3, 15 nM biotin-ASF

Row | SMILES | inhibition at 20 µM [%]
26 | O=C(OC1[C@@H](n2cc(-c3cc(F)c(F)c(F)c3)nn2)[C@@H](O)[C@@H](CO)O[C@@]12CCCO2)c1cccnc1 (stereo in doubt) [Compound A75, (5S,7R,8R,9S,10S)-8-hydroxy-7-(hydroxymethyl)-9-(4-(3,4,5-trifluorophenyl)-1H-1,2,3-triazol-1-yl)-1,6-dioxaspiro[4.5]decan-10-yl nicotinate] | 32
